Reference: ChEMBL document CHEMBL5053500, “Nitric Oxide Induction in Peritoneal Macrophages by a 1,2,3-Triazole Derivative Improves Its Efficacy upon Leishmania amazonensis In Vitro Infection” (J Med Chem, 2021)
Calls of active or inactive are those of the source. No cut-off for these calls is given here.

Key:
[1] = Cytotoxicity against BALB/c mouse peritoneal macrophages assessed as reduction in cell viability incubated for 24 hrs by MTT assay; assay type: cell-based, Peritoneal macrophage
[2] = Cytotoxicity against human CCD-1072Sk cells assessed as reduction in cell viability at <400 uM measured after 24 hrs by MTT assay; assay type: cell-based
[3] = tested on: Leishmania amazonensis; assay: Antileishmanial activity against Leishmania amazonensis (MHOM/BR/76/MA-76) promastigotes assessed as reduction in parasite growth incubated for 24 hrs by MTT assay; assay type: functional, organism-based; conditions: MHOM/BR/76/MA-76, 24 h
[4] = Selectivity index, ratio of CC50 for cytotoxicity against BALB/c mouse peritoneal macrophages to IC50 for antileishmanial activity against Leishmania amazonensis (MHOM/BR/76/MA-76) promastigotes; assay type: toxicity; conditions: read-out: Ratio CC50/IC50
[5] = tested on: Leishmania amazonensis; assay: (§1) Antileishmanial activity against Leishmania amazonensis (MHOM/BR/76/MA-76) intracellular amastigotes infected in BALB/c mouse peritoneal macrophages assessed as low amastigote mean at 40 uM incubated for 24 hrs by Giemsa's azur-eosin-methyle blue staining based light microscopy analysis; assay type: functional, organism-based; conditions: Peritoneal macrophage
[6] = tested on: Leishmania amazonensis; assay: Induction of morphological changes in Leishmania amazonensis (MHOM/BR/76/MA-76) promastigotes assessed as lipid inclusions at IC50 incubated for 24 hrs by transmission electron microscopy analysis; assay type: functional, organism-based
[7] = Selectivity index, ratio of CC50 for cytotoxicity against BALB/c mouse peritoneal macrophage to IC50 for antileishmanial activity against Leishmania amazonensis (MHOM/BR/76/MA-76) intracellular amastigotes infected in BALB/c mouse peritoneal macrophages; assay type: toxicity, cell-based; conditions: read-out: Ratio CC50/IC50
[8] = tested on: Leishmania amazonensis; assay: as §1, with “decrease in number of amastigotes per 100 cells” for “low amastigote mean”; assay type: functional, organism-based; conditions: Peritoneal macrophage
[9] = tested on: Leishmania amazonensis; assay: as §1, with “upward shift in concentration response curves of parasite viability” for “low amastigote mean at 40 uM”; assay type: functional, organism-based; conditions: Peritoneal macrophage
[10] = tested on: Leishmania amazonensis; assay: Antileishmanial activity against Leishmania amazonensis (MHOM/BR/76/MA-76) intracellular amastigotes infected in BALB/c mouse peritoneal macrophages assessed as reduction in parasite growth incubated for 24 hrs by Giemsa's azur-eosin-methyle blue staining based light microscopy analysis; assay type: functional, organism-based; conditions: MHOM/BR/76/MA-76, Peritoneal macrophage
[11] = tested on: Leishmania amazonensis; assay: (§2) Antileishmanial activity against Leishmania amazonensis (MHOM/BR/76/MA-76) intracellular amastigotes infected in BALB/c mouse peritoneal macrophages assessed as decrease in number of amastigotes per infected cells at up to 40 uM incubated for 24 hrs by Giemsa's azur-eosin-methyle blue staining based light microscopy analysis; assay type: functional, organism-based; conditions: Peritoneal macrophage
[12] = tested on: Leishmania amazonensis; assay: Antileishmanial activity against Leishmania amazonensis (MHOM/BR/76/MA-76) promastigotes assessed as upward shift in concentration response curves of parasite viability incubated for 24 hrs by MTT assay; assay type: functional, organism-based
[13] = tested on: Leishmania amazonensis; assay: Induction of morphological changes in Leishmania amazonensis (MHOM/BR/76/MA-76) promastigotes assessed as formation of membrane profiles near the flagellar pocket at IC50 incubated for 24 hrs by transmission electron microscopy analysis; assay type: functional, organism-based
[14] = tested on: Leishmania amazonensis; assay: Induction of morphological changes in Leishmania amazonensis (MHOM/BR/76/MA-76) promastigotes assessed as formation of small vesicles surrounded by a membrane in cytoplasm at IC50 incubated for 24 hrs by transmission electron microscopy analysis; assay type: functional, organism-based
[15] = Inhibition of iNOS expression in BALB/c mouse peritoneal macrophages stimulated with Leishmania amazonensis assessed as decrease in nitrite levels at 200 nM pretreated for 1 hr followed by parasite stimulation and measured after 48 hrs by Griess reagent based assay; assay type: functional, Peritoneal macrophage; conditions: time 49 hrs
[16] = tested on: Peritoneal macrophage; assay: Upregulation of IL-6 mRNA expression in BALB/c mouse peritoneal macrophages stimulated with Leishmania amazonensis at 50 uM measured after 48 hrs by qRT-PCR analysis; assay type: functional, tissue-based
[17] = tested on: Peritoneal macrophage; assay: Upregulation of TNF-alpha mRNA expression in BALB/c mouse peritoneal macrophages stimulated with Leishmania amazonensis at 50 uM measured after 48 hrs by qRT-PCR analysis; assay type: functional, tissue-based
[18] = tested on: Peritoneal macrophage; assay: Upregulation of IL-1beta mRNA expression in BALB/c mouse peritoneal macrophages stimulated with Leishmania amazonensis at 50 uM measured after 48 hrs by qRT-PCR analysis; assay type: functional, tissue-based
[19] = tested on: Leishmania amazonensis; assay: (§3) Antileishmanial activity against Leishmania amazonensis (MHOM/BR/76/MA-76) intracellular amastigotes infected in BALB/c mouse peritoneal macrophages assessed as number of amastigotes per 100 cells at 15.52 uM measured after 24 hrs by Giemsa's azur-eosin-methylene blue staining based light microscopy analysis; assay type: functional, Peritoneal macrophage
[20] = Inhibition of iNOS expression in BALB/c mouse peritoneal macrophages assessed as decrease in LPS induced nitrite levels at 50 uM pretreated with 1400W for 1 hr followed by LPS stimulation further treated with test compound and measured after 48 hrs by Griess reagent based assay (Rvb= 4.27 +/- 0.432 uM); assay type: functional, Peritoneal macrophage
[21] = tested on: Leishmania amazonensis; assay: as §3, with “uM pretreated with 1400W for 1 hr followed by test compound addition” for “uM”; assay type: functional, Peritoneal macrophage
[22] = tested on: Leishmania amazonensis; assay: as §3, with “cell” for “100 cells”; assay type: functional, Peritoneal macrophage
[23] = tested on: Peritoneal macrophage; assay: Cytotoxicity against BALB/C mouse peritoneal macrophages assessed as reduction in cell viability at 100 uM measured after 24 hrs by MTT assay relative to control; assay type: cell-based
[24] = tested on: Leishmania amazonensis; assay: as §3, with “percentage” for “number”, “infected” for “amastigotes per 100”; assay type: functional, Peritoneal macrophage
[25] = tested on: Leishmania amazonensis; assay: Induction of morphological changes in Leishmania amazonensis (MHOM/BR/76/MA-76) promastigotes assessed as kinetoplast swelling at IC50 incubated for 24 hrs by transmission electron microscopy analysis; assay type: functional, organism-based
[26] = tested on: Peritoneal macrophage; assay: Upregulation of IL-10 mRNA expression in BALB/c mouse peritoneal macrophages stimulated with Leishmania amazonensis at 50 uM measured after 48 hrs by qRT-PCR analysis; assay type: functional, tissue-based
[27] = Selectivity ratio of IC50 for antileishmanial activity against Leishmania amazonensis (MHOM/BR/76/MA-76) promastigotes to IC50 for antileishmanial activity against Leishmania amazonensis (MHOM/BR/76/MA-76) intracellular amastigotes infected in BALB/c mouse peritoneal macrophages; assay type: functional
[28] = Upregulation of iNOS mRNA expression in BALB/c mouse peritoneal macrophages stimulated with Leishmania amazonensis at 50 uM measured after 48 hrs by qRT-PCR analysis; assay type: functional, Peritoneal macrophage
[29] = tested on: Leishmania amazonensis; assay: as §3, with “cell” for “100 cells”, “uM pretreated with 1400W for 1 hr followed by test compound addition” for “uM”; assay type: functional, Peritoneal macrophage
[30] = tested on: Leishmania amazonensis; assay: as §2, with “20” for “up”; assay type: functional, organism-based; conditions: Peritoneal macrophage, dose 20-40 µM
[31] = Upregulation of iNOS mRNA expression in BALB/c mouse peritoneal macrophages at 50 uM measured after 48 hrs by qRT-PCR analysis relative to control; assay type: functional, Peritoneal macrophage
[32] = tested on: Peritoneal macrophage; assay: Induction of NO production in BALB/C mouse peritoneal macrophages assessed as nitrite levels at 50 uM measured after 48 hrs by Griess reagent based assay (Rvb= 3.22 +/- 0.570 uM); assay type: functional
[33] = tested on: Leishmania amazonensis; assay: as §3, with “percentage” for “number”, “infected” for “amastigotes per 100”, “uM pretreated with 1400W for 1 hr followed by test compound addition” for “uM”; assay type: functional, Peritoneal macrophage
[34] = tested on: Peritoneal macrophage; assay: Induction of NO production in BALB/C mouse peritoneal macrophages assessed as nitrite levels at 100 uM measured after 48 hrs by Griess reagent based assay (Rvb= 3.22 +/- 0.570 uM); assay type: functional
[35] = tested on: Leishmania amazonensis; assay: as §2, with “per 100” for “per infected”, “at 10” for “at up”; assay type: functional, organism-based; conditions: Peritoneal macrophage, dose 10-40 µM
[36] = tested on: Peritoneal macrophage; assay: Upregulation of IL-12 mRNA expression in BALB/c mouse peritoneal macrophages stimulated with Leishmania amazonensis at 50 uM measured after 48 hrs by qRT-PCR analysis; assay type: functional, tissue-based
[37] = tested on: Peritoneal macrophage; assay: Induction of NO production in BALB/C mouse peritoneal macrophages infected with Leishmania amazonensis assessed as nitrite levels at 50 uM measured after 48 hrs by Griess reagent based assay (Rvb= 4.11 +/- 0.156 uM); assay type: functional
[38] = Inhibition of iNOS expression in BALB/C mouse peritoneal macrophages stimulated with Leishmania amazonensis assessed as decrease in nitrite levels at 50 uM pretreated with 1400W for 1 hr followed by parasite stimulation and measured after 48 hrs by Griess reagent based assay (Rvb= 2.60 +/- -.236 uM); assay type: functional, Peritoneal macrophage
[39] = tested on: Leishmania amazonensis; assay: Antileishmanial activity against Leishmania amazonensis (MHOM/BR/76/MA-76) intracellular amastigotes infected in BALB/c mouse peritoneal macrophages assessed as low amastigote mean at 5 to 40 uM incubated for 24 hrs by Giemsa's azur-eosin-methyle blue staining based light microscopy analysis; assay type: functional, organism-based; conditions: Peritoneal macrophage, dose 5-40 µM
[40] = Cytotoxicity against human CCD-1072Sk cells assessed as reduction in cell viability measured after 24 hrs by MTT assay; assay type: cell-based

OC(c1cn(-c2ccc(Br)cc2)nn1)c1ccccc1Br (configuration not stated)
CC50 at 24 h [1]: 313 µM
Activity [2]: Non-Toxic
IC50 [3]: > 200 µM
selectivity ratio [4]: < 1.56

OC(c1ccccc1)c1cn(-c2ccc(Br)cc2)nn1 (configuration not stated)
CC50 at 24 h [1]: > 400 µM
Activity [2]: Non-Toxic
IC50 [3]: > 200 µM
selectivity ratio [4]: > 2

CC(=O)c1ccc(-n2cc(C(O)c3ccccc3-c3ccccc3)nn2)cc1 (configuration not stated)
CC50 at 24 h [1]: 234 µM
Activity [2]: Non-Toxic
IC50 [3]: 56.6 µM
selectivity ratio [4]: 4.12

COC(=O)c1ccc(-n2cc(C(O)c3ccccc3Br)nn2)cc1 (configuration not stated)
Activity [5]: Active
CC50 at 24 h [1]: 297 µM
Activity [6]: Active
Activity [2]: Non-Toxic
IC50 [3]: 27.8 µM
selectivity ratio [7]: 8.03
Activity [8]: Active
Activity [9]: Active
IC50 [10]: 37 µM
Activity [11]: inactive
selectivity ratio [4]: 10.7
Activity [12]: Active
Activity [13]: Active
Activity [14]: Active

O=c1ccc2cc(-n3cc(C(O)c4ccccc4Br)nn3)ccc2o1 (configuration not stated)
CC50 at 24 h [1]: 348 µM
Activity [2]: Non-Toxic
IC50 [3]: 81.4 µM
selectivity ratio [4]: 4.27

CC(=N)NCc1cccc(CN)c1.Cl.Cl
Activity [15]: 2.06 µM

O=c1ccc2cc(-n3cc(C(O)c4ccccc4-c4ccccc4)nn3)ccc2o1 (configuration not stated)
CC50 at 24 h [1]: 141 µM
Activity [2]: Non-Toxic
IC50 [3]: > 200 µM
selectivity ratio [4]: < 0.7

OC(c1ccc(Br)cc1)c1cn(-c2ccc(Br)cc2)nn1 (configuration not stated)
Activity [16]: inactive
Activity [17]: Active
Activity [18]: Active
Activity [19]: 169.38
Activity [20]: 2.65 µM
Activity [21]: 288.25
Activity [22]: 2.86
CC50 at 24 h [1]: 84 µM
Activity [6]: Active
Activity [23]: 65.79%
Activity [2]: Non-Toxic
IC50 [3]: 15.5 µM
Activity [24]: 55.6
Activity [25]: Active
Activity [26]: inactive
Ratio IC50 [27]: 3.7
fold change (FC) [28]: 24.47
selectivity ratio [7]: 20.5
Activity [29]: 3.68
Activity [9]: Active
IC50 [10]: 4.1 µM
Activity [30]: Active
fold change (FC) [31]: 12.28
Activity [32]: 4.63 µM
Activity [33]: 79.6
Activity [34]: 4.34 µM
Activity [35]: Active
Activity [36]: inactive
Activity [37]: 9.37 µM
selectivity ratio [4]: 5.41
Activity [38]: 3.06 µM
Activity [12]: Active
Activity [13]: Active
Activity [14]: Active
Activity [39]: Active

OC(c1ccc(Br)cc1)c1cn(-c2ccc(F)cc2)nn1 (configuration not stated)
CC50 at 24 h [1]: 182 µM
Activity [2]: Non-Toxic
IC50 [3]: 45.6 µM
selectivity ratio [4]: 4

OC(c1cn(-c2ccc(Br)cc2)nn1)c1ccccc1F (configuration not stated)
CC50 at 24 h [1]: > 400 µM
Activity [2]: Non-Toxic
IC50 [3]: 110 µM
selectivity ratio [4]: > 3.62

COC(=O)c1ccc(-n2cc(C(O)c3cccnc3-c3ccccc3)nn2)cc1 (configuration not stated)
CC50 at 24 h [1]: > 400 µM
Activity [2]: Non-Toxic
IC50 [3]: 95.9 µM
selectivity ratio [4]: > 4.17

CCCCCCCCCCCCCCCCOP(=O)([O-])OCC[N+](C)(C)C [MILTEFOSINE]
CC50 at 24 h [40]: 191 µM
CC50 at 24 h [1]: 169 µM
IC50 [3]: 8.02 µM
selectivity ratio [7]: 33.2
Activity [9]: Active
IC50 [10]: 5.11 µM
Activity [30]: Active
Activity [35]: Active
selectivity ratio [4]: 21.1
Activity [12]: Active
Activity [39]: Active

O=[N+]([O-])c1ccccc1C(O)c1cn(-c2ccc(Br)cc2)nn1 (configuration not stated)
CC50 at 24 h [1]: > 400 µM
Activity [2]: Non-Toxic
IC50 [3]: 190 µM
selectivity ratio [4]: > 2.1
